Our source for the DC50 and Y values is US11560371B2, “Cereblon binding compounds, compositions thereof, and methods of treatment therewith” (Celgene Corporation, priority 2020, dated 2023).

This experiment concerns the target T1, AR (Homo sapiens, UniProt P10275).
T1 construct: endogenous in cells; host or cells: VCaP cells
T1 sequence (P10275 1-920): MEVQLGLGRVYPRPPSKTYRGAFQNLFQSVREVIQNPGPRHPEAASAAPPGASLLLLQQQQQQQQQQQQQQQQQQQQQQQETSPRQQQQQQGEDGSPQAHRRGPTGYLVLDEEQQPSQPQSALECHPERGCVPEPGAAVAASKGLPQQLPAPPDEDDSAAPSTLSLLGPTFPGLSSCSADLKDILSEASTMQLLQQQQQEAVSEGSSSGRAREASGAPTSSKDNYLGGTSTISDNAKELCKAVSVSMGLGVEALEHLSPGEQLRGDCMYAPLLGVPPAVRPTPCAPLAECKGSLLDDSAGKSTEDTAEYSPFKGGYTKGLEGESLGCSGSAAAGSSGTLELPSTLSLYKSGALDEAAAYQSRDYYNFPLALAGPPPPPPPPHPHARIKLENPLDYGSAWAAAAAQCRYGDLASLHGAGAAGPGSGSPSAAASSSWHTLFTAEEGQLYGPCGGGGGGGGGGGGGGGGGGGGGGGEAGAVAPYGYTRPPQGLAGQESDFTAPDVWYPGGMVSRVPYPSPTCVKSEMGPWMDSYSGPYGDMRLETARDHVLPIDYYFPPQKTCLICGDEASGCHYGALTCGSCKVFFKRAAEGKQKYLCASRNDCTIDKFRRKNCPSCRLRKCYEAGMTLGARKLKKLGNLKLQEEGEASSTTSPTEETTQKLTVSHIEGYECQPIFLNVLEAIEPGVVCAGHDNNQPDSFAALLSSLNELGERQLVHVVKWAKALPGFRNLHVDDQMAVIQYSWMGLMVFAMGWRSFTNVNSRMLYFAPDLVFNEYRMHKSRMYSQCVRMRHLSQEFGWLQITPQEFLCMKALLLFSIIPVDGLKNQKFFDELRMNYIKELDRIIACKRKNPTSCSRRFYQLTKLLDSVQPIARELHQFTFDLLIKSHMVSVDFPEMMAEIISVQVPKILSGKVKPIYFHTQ
Nature of the experiment: VCAP AR Degradation Assay. Format: cell-based. The settings on record: VCaP cells, 24 h, AR ELISA; for DC50: concentration of compound when AR level = 50% of DMSO control (50% AR degradation); for Y: lowest measured AR level normalized to DMSO control (AR degradation efficiency). The procedure, abridged: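 VCaP cells (DMEM, 8% FBS) were treated 24 h at 37 °C with a 10-point 1:3 series from 5 µM final, with 0.1% DMSO control. Total AR in lysates was measured by sandwich ELISA as percent of DMSO. A 4-parameter fit gave DC50 (50% of control) and EC50; fitted Ymin marks degradation efficiency.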
(In general: An ELISA detects its analyte on a solid surface through an enzyme-linked reagent.)

Structures can show the parent of a compound that is named as a salt.

The term DC50 denotes the midpoint of the concentration-degradation curve. The low end stands for a more potent degrader, the high end for a less potent degrader. As for `C[C@@H]1CN(CCO[C@H]2CC[C@H](N3C(=S)N(c4ccc(C#N)c(C(F)(F)F)c4)C(=O)C3(C)C)CC2)C[C@H](C)N1CCCOc1cccc2c(N3CCC(=O)NC3=O)nn(C)c12` [Cmpd 16, 4-(3-(trans-4-(2-((3S,5R)-4-(3-((3-(2,4-dioxotetrahydropyrimidin-1(2H)-yl)-1-methyl-1H-indazol-7-yl)oxy)propyl)-3,5-dimethylpiperazin-1-yl)ethoxy)cyclohexyl)-4,4-dimethyl-5-oxo-2-thioxoimidazolidin-1-yl)-2-(trifluoromethyl)benzonitrile hydrochloride], the DC50 was in the range of 100 to 10000 nM and the Y result is recorded as “*** (30%<Y<60%)”.
For `C[C@@H]1CN(CCO[C@H]2CC[C@H](N3C(=S)N(c4ccc(C#N)c(C(F)(F)F)c4)C(=O)C3(C)C)CC2)C[C@H](C)N1CCOc1cccc2c(N3CCC(=O)NC3=O)nn(C)c12` [Cmpd 15, 4-(3-(trans-4-(2-((3R,5S)-4-(2-((3-(2,4-Dioxotetrahydropyrimidin-1(2H)-yl)-1-methyl-1H-indazol-7-yl)oxy)ethyl)-3,5-dimethylpiperazin-1-yl)ethoxy)cyclohexyl)-4,4-dimethyl-5-oxo-2-thioxoimidazolidin-1-yl)-2-(trifluoromethyl)benzonitrile hydrochloride], in that order: 100 to 10000 nM and “** (20%<Y≤%)”.
Regarding `C[C@@H]1C[C@H](OCCO[C@H]2CC[C@H](N3C(=S)N(c4ccc(C#N)c(C(F)(F)F)c4)C(=O)C3(C)C)CC2)C[C@H](C)N1CC(=O)Nc1cccc2c(N3CCC(=O)NC3=O)nn(C)c12` [Cmpd 33, 2-((2R,4r,6S)-4-(2-(((trans)-4-(3-(4-Cyano-3-(trifluoromethyl)phenyl)-5,5-dimethyl-4-oxo-2-thioxoimidazolidin-1-yl)cyclohexyl)oxy)ethoxy)-2,6-dimethylpiperidin-1-yl)-N-(3-(2,4-dioxotetrahydropyrimidin-1(2H)-yl)-1-methyl-1H-indazol-7-yl)acetamide], the DC50 lay within 2 to 10 nM and the Y entry is “** (20%<Y≤%)”.
